Results: PMC3505660, “Application of Collagen-Model Triple-Helical Peptide-Amphiphiles for CD44-Targeted Drug Delivery Systems” (Journal of Drug Delivery, 2012)

How the values were obtained:
BJ foreskin fibroblasts = test: CellTiter-Glo Luminescent Cell Viability Assay (cytotoxicity), BJ; format: cell-based, human; conditions: BJ cells, [DOX] = 100 μM, 3 h exposure
Source text: (§1) The M14#5 and M14#11 human metastatic melanoma cell lines were generously provided by Dr. Barbara Mueller. The BJ foreskin fibroblasts […] were obtained from the American Type Culture Collection (ATCC) (Cat# CRL-2522). Cell media (Cat# MT10-013-CV) and trypan blue (Cat# ICN1691049) were obtained from Fisher Scientific or CellGro, and all reagents required for cell culture were purchased from Invitrogen. Cells were maintained in DMEM supplemented with 10% fetal bovine serum (Cat# 10437028), 50 units/mL penicillin, and 0.05 mg/mL streptomycin (Cat# 15140163). Cells were cultured with complete medium at 37°C in a humidified atmosphere of 5% CO2 in air. For all experiments cells were harvested from subconfluent (<80%) cultures using a trypsin-EDTA (Cat# 15400054) solution and then resuspended in fresh medium. Preparations of cells with a >90% viability, as determined by trypan blue exclusion, were used.
(§2) The cytotoxicity of all liposomal systems used in this study, as well as free DOX, on the cells was determined using the CellTiter-Glo Luminescent Cell Viability Assay. The M14#5, M14#11, and BJ cells were plated on 96-well tissue cultured treated plates corning at a density of 5 × 10^3 cells per well and incubated for 24 h at 37°C and 5% CO2. The culture medium was then replaced with 100 μL of medium containing various concentrations of each liposomal system or free DOX. […]

[1] = test system: M14#5 human metastatic melanoma cells; test: CellTiter-Glo Luminescent Cell Viability Assay (cytotoxicity), M14#5; format: cell-based; conditions: M14#5 cells, [DOX] = 100 μM, 3 h exposure
Source text: as §1, §2

[2] = parameters: method as in PMID 8313389, PMID 7865538; conditions: cited from earlier work
Source text: Potential DOX delivery in vivo, however, is quite different than in vitro when one considers circulation times. […] In ...

COc1cccc2c1C(=O)c1c(O)c3c(c(O)c1C2=O)C[C@@](O)(C(=O)CO)C[C@@H]3O[C@H]1C[C@H](N)[C@H](O)[C@H](C)O1 [free DOX, doxorubicin]
cell viability (BJ foreskin fibroblasts): 50–60%
cell viability [1]: 50–60%
clearance of free DOX relative to DOX encapsulated within PEGylated liposomes [2]: 450 times faster
